Data as given in PubChem BioAssay (NCI).
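Compound exposure: 48 hours, 5 concentrations, 96-well plates. At the GI50, growth is halved. At the TGI there is no net growth.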

How the values were obtained:
Assay in all cases: DTP human tumour cell line panel, 48 h
HOP-92 NSCLC = test system: HOP-92 NSCLC
SN12C renal = test system: SN12C renal
MDA-MB-435 = test system: MDA-MB-435
UO-31 renal = test system: UO-31 renal
OVCAR-3 ovarian = test system: OVCAR-3 ovarian
ACHN renal = test system: ACHN renal
MALME-3M melanoma = test system: MALME-3M melanoma
KM12 colon = test system: KM12 colon
786-0 renal = test system: 786-0 renal
NCI/ADR-RES ovarian = test system: NCI/ADR-RES ovarian
SK-OV-3 ovarian = test system: SK-OV-3 ovarian
MCF7 breast = test system: MCF7 breast
SNB-75 CNS = test system: SNB-75 CNS
NCI-H522 lung = test system: NCI-H522 lung
HCT-15 colon = test system: HCT-15 colon
SK-MEL-5 melanoma = test system: SK-MEL-5 melanoma
PC-3 prostate = test system: PC-3 prostate
BT-549 breast = test system: BT-549 breast
RXF 393 renal = test system: RXF 393 renal
OVCAR-4 ovarian = test system: OVCAR-4 ovarian
CCRF-CEM leukemia = test system: CCRF-CEM leukemia
HCC-2998 colon = test system: HCC-2998 colon
EKVX NSCLC = test system: EKVX NSCLC
SK-MEL-28 melanoma = test system: SK-MEL-28 melanoma
HOP-62 NSCLC = test system: HOP-62 NSCLC
UACC-62 melanoma = test system: UACC-62 melanoma
OVCAR-5 ovarian = test system: OVCAR-5 ovarian
RPMI-8226 leukemia = test system: RPMI-8226 leukemia
IGROV1 ovarian = test system: IGROV1 ovarian
SF-539 CNS = test system: SF-539 CNS
HT29 colon = test system: HT29 colon
SW-620 colon = test system: SW-620 colon
NCI-H23 lung = test system: NCI-H23 lung
MOLT-4 leukemia = test system: MOLT-4 leukemia
SF-268 CNS = test system: SF-268 CNS
DU-145 prostate = test system: DU-145 prostate
A549 NSCLC = test system: A549 NSCLC
SNB-19 CNS = test system: SNB-19 CNS
SF-295 CNS = test system: SF-295 CNS
OVCAR-8 ovarian = test system: OVCAR-8 ovarian
K-562 leukemia = test system: K-562 leukemia
CAKI-1 renal = test system: CAKI-1 renal
T-47D breast = test system: T-47D breast
NCI-H226 lung = test system: NCI-H226 lung
MDA-MB-231 breast = test system: MDA-MB-231 breast
COLO 205 colon = test system: COLO 205 colon
A498 renal = test system: A498 renal
HL-60(TB) leukemia = test system: HL-60(TB) leukemia
TK-10 renal = test system: TK-10 renal
HCT-116 colon = test system: HCT-116 colon
M14 melanoma = test system: M14 melanoma
U251 CNS = test system: U251 CNS
NCI-H460 lung = test system: NCI-H460 lung
LOX IMVI melanoma = test system: LOX IMVI melanoma
HS 578T breast = test system: HS 578T breast
SK-MEL-2 melanoma = test system: SK-MEL-2 melanoma
UACC-257 melanoma = test system: UACC-257 melanoma

**Q.** Which results are given for `CC(C)(C)CC(C)(C)c1ccc(OCCSC(=N)N)cc1`?
**A.** GI50 (HOP-92 NSCLC): 1140 nM; TGI (HOP-92 NSCLC): 2570 nM; GI50 (SN12C renal): 1680 nM; TGI (SN12C renal): 3210 nM; GI50 (MDA-MB-435): 1450 nM; TGI (MDA-MB-435): 2800 nM; GI50 (UO-31 renal): 1580 nM; TGI (UO-31 renal): 3970 nM; GI50 (OVCAR-3 ovarian): 1470 nM; TGI (OVCAR-3 ovarian): 2890 nM; GI50 (ACHN renal): 1640 nM; TGI (ACHN renal): 3270 nM; GI50 (MALME-3M melanoma): 1810 nM; TGI (MALME-3M melanoma): 3460 nM; GI50 (KM12 colon): 1500 nM; TGI (KM12 colon): 3050 nM; GI50 (786-0 renal): 1510 nM; TGI (786-0 renal): 3090 nM; GI50 (NCI/ADR-RES ovarian): 1870 nM; TGI (NCI/ADR-RES ovarian): 3880 nM; GI50 (SK-OV-3 ovarian): 2570 nM; TGI (SK-OV-3 ovarian): 5540 nM; GI50 (MCF7 breast): 1320 nM; TGI (MCF7 breast): 3000 nM; GI50 (SNB-75 CNS): 1430 nM; TGI (SNB-75 CNS): 2790 nM; GI50 (NCI-H522 lung): 1590 nM; TGI (NCI-H522 lung): 3450 nM; GI50 (HCT-15 colon): 1060 nM; TGI (HCT-15 colon): 2380 nM; GI50 (SK-MEL-5 melanoma): 1370 nM; TGI (SK-MEL-5 melanoma): 2680 nM; GI50 (PC-3 prostate): 1610 nM; TGI (PC-3 prostate): 4170 nM; GI50 (BT-549 breast): 2020 nM; TGI (BT-549 breast): 4800 nM; GI50 (RXF 393 renal): 1180 nM; TGI (RXF 393 renal): 2580 nM; GI50 (OVCAR-4 ovarian): 1430 nM; TGI (OVCAR-4 ovarian): 2910 nM; GI50 (CCRF-CEM leukemia): 1990 nM; TGI (CCRF-CEM leukemia): 5320 nM; GI50 (HCC-2998 colon): 610 nM; TGI (HCC-2998 colon): 1880 nM; GI50 (EKVX NSCLC): 1410 nM; TGI (EKVX NSCLC): 2980 nM; GI50 (SK-MEL-28 melanoma): 1700 nM; TGI (SK-MEL-28 melanoma): 3340 nM; GI50 (HOP-62 NSCLC): 2150 nM; TGI (HOP-62 NSCLC): 4000 nM; GI50 (UACC-62 melanoma): 1720 nM; TGI (UACC-62 melanoma): 3160 nM; GI50 (OVCAR-5 ovarian): 1880 nM; TGI (OVCAR-5 ovarian): 3770 nM; GI50 (RPMI-8226 leukemia): 1360 nM; TGI (RPMI-8226 leukemia): 3590 nM; GI50 (IGROV1 ovarian): 2310 nM; TGI (IGROV1 ovarian): 5200 nM; GI50 (SF-539 CNS): 1750 nM; TGI (SF-539 CNS): 3350 nM; GI50 (HT29 colon): 417 nM; TGI (HT29 colon): 1850 nM; GI50 (SW-620 colon): 1450 nM; TGI (SW-620 colon): 3340 nM; GI50 (NCI-H23 lung): 1810 nM; TGI (NCI-H23 lung): 3680 nM; GI50 (MOLT-4 leukemia): 1700 nM; TGI (MOLT-4 leukemia): 4800 nM; GI50 (SF-268 CNS): 2010 nM; TGI (SF-268 CNS): 4050 nM; GI50 (DU-145 prostate): 1740 nM; TGI (DU-145 prostate): 3220 nM; GI50 (A549 NSCLC): 1910 nM; TGI (A549 NSCLC): 4430 nM; GI50 (SNB-19 CNS): 1700 nM; TGI (SNB-19 CNS): 3450 nM; GI50 (SF-295 CNS): 1690 nM; TGI (SF-295 CNS): 3120 nM; GI50 (OVCAR-8 ovarian): 2080 nM; TGI (OVCAR-8 ovarian): 5080 nM; GI50 (K-562 leukemia): 833 nM; TGI (K-562 leukemia): 3860 nM; GI50 (CAKI-1 renal): 3130 nM; TGI (CAKI-1 renal): 13600 nM; GI50 (T-47D breast): 1630 nM; TGI (T-47D breast): 3910 nM; GI50 (NCI-H226 lung): 1930 nM; TGI (NCI-H226 lung): 5830 nM; GI50 (MDA-MB-231 breast): 1220 nM; TGI (MDA-MB-231 breast): 2800 nM; GI50 (COLO 205 colon): 564 nM; TGI (COLO 205 colon): 2010 nM; GI50 (A498 renal): 2340 nM; TGI (A498 renal): 11500 nM; GI50 (HL-60(TB) leukemia): 1600 nM; TGI (HL-60(TB) leukemia): 3520 nM; GI50 (TK-10 renal): 1760 nM; TGI (TK-10 renal): 3340 nM; GI50 (HCT-116 colon): 1380 nM; TGI (HCT-116 colon): 2850 nM; GI50 (M14 melanoma): 1680 nM; TGI (M14 melanoma): 3420 nM; GI50 (U251 CNS): 1570 nM; TGI (U251 CNS): 3170 nM; GI50 (NCI-H460 lung): 1890 nM; TGI (NCI-H460 lung): 3870 nM; GI50 (LOX IMVI melanoma): 1480 nM; TGI (LOX IMVI melanoma): 2920 nM; GI50 (HS 578T breast): 2150 nM; TGI (HS 578T breast): 5420 nM; GI50 (SK-MEL-2 melanoma): 1960 nM; TGI (SK-MEL-2 melanoma): 3700 nM; GI50 (UACC-257 melanoma): 1720 nM; TGI (UACC-257 melanoma): 3450 nM
